In US20260001915A1, “METHODS FOR TREATING OBESITY WITH AN MC4R AGONIST” (RHYTHM PHARMACEUTICALS, INC., priority 2022, published 2026):

Legend:
[1] = Phase 2 hypothalamic obesity study: daily hunger questionnaire (most hungry last 24 hrs), weekly average of daily most hunger score; format: in vivo, human; conditions: patients ≥12 years of age
Source text: (§1) The secondary endpoints included determination of: • Composite proportion of patients aged ≥6 to <18 years with ≥0.2 reduction of BMI Z-score and patients aged ≥18 years with 5% reduction of body weight from baseline after 16 weeks of setmelanotide • Proportion of patients aged ≥6 to <18 years with ≥0.2 reduction of BMI Z-score from baseline after 16 weeks of setmelanotide • Proportion of patients aged 18 years with 5% reduction of body weight from baseline after 16 weeks of setmelanotide • Change from baseline in waist circumference in patients aged 18 years after 16 weeks of setmelanotide treatment. • Change in hunger in response to 16 weeks of setmelanotide treatment as measured by change from baseline in daily and global hunger scores. • Safety and tolerability assessed by the frequency and severity of AEs, vital signs, and laboratory evaluations. • Change from baseline in metabolic parameters following treatment with setmelanotide, including fasting glucose, HbA1c, lipid profiles (total-, high-density lipoprotein [HDL]-, and low-density lipoprotein [LDL]-cholesterol, triglycerides). • Proportion of patients, regardless of age, with ≥5% body weight loss from baseline after 16 weeks of setmelanotide treatment compared to a historic control of <5% in this patient population. • Change from baseline in BMI, weight, and waist circumference, regardless of age, after 16 weeks of setmelanotide treatment. • Change from baseline in BMI Z-score in patients aged 6 to 12 years and in those aged 6 to <18 years.
All screening evaluations were completed and reviewed to confirm that potential patients meet all eligibility criteria. […]
The daily hunger questionnaire as assessed in patients ≥12 years of age also achieved a clinically meaningful diminution quantifying the most hungry the patient has experienced over the last 24 hours, with a mean reduction in the hunger score of −2.66 after 16 weeks. […]

[2] = Phase 2 open-label study of setmelanotide SC daily in patients with hypothalamic obesity: BMI, BMI Z-score, body weight after 16 weeks; format: in vivo, human; conditions: for Weight (kg), Week 16 Actual, Mean (SD): 16 weeks of treatment
Procedure: This example describes a phase 2 study that seeks to evaluate the change in body weight in response to an exemplary MC4R agonist, e.g., setmelanotide (i.e., SEQ ID NO: 140) administered subcutaneously (SC) daily in patients with hypothalamic obesity (HO).
Setmelanotide, 10 mg/mL in a sterile solution for injection, was provided at 1.0, 2.0, 3.0 mg QD for patients 6 to <16 years of age, and 2.0 to 3.0 mg QD for patients ≥16 years of age.
The primary endpoint of this study was to identify a proportion of patients with ≥5% reduction from baseline in BMI after 16 weeks of setmelanotide treatment compared to a historic control of <5% in this patient population.
as §1
This study describes a Phase 2, multicenter, open-label, proof of concept study designed to assess the effect of setmelanotide on weight loss within a population affected by HO. Approximately 15 patients aged 6 to 40 years, inclusive, were enrolled across approximately 3-5 clinical sites in the United States (US).
Patients who were determined to be eligible, based on Screening assessments, returned to the clinic for the Baseline Visit (Visit 2) and received the first setmelanotide dose. The starting setmelanotide dose was dependent on patient age; however, for all patients, the setmelanotide dose was titrated to a final dose of 3.0 mg/day (initial titration phase), as follows
• Starting at Baseline (Day 1; Visit 2) through approximately Day 14, patients received setmelanotide 1.0 mg/day. • Starting at approximately Day 15 through 28, patients received setmelanotide 2.0 mg/day.
• Starting at Baseline (Day 1; Visit 2) through approximately Day 14, patients received setmelanotide 2.0 mg/day. • Starting at approximately Day 15, patients received setmelanotide 3.0 mg/day; patients continue to receive setmelanotide 3.0 mg/day for 14 weeks.
Patients returned to the study center for Visits 3, 4, and 5 (Weeks 4, 8, and 12, respectively), with each of these visits conducted approximately 4 weeks apart. All patients returned to the study center at Week 16 (Visit 6) and received the last setmelanotide injection. Study endpoints were analyzed at Visit 6.
All patients received open-label setmelanotide in this study. Setmelanotide was provided as a preserved, multidose solution for injection to be administered SC, QD. It was formulated as a 10 mg/mL sterile, preserved, clear to slightly opalescent, colorless to slightly colored solution, practically free of visible particles. […]

[3] = patients with POMC and LEPR deficiency obesity; cited from earlier work
[4] = Phase 2 hypothalamic obesity study: safety and tolerability (TEAEs, SAEs); format: in vivo, human
Source text: as §1
All screening evaluations were completed and reviewed to confirm that potential patients meet all eligibility criteria. Exemplary evaluations included a medical history review, physical examination, comprehensive skin examination, measurement of height, weight, waist circumference, body composition assessment, pregnancy test (if applicable), daily hunger questionnaires, global hunger assessment, and evaluation of PHQ-A or PHQ-9, C—SSRS, SF-12 or SF-10, IWQOL, FSH, HbA1c, and fasting lipid panel. Adjustments were made depending upon specific circumstances and in consultation with the investigator. Immediate safety concerns were discussed immediately upon occurrence or awareness to determine if the patient should continue or discontinue study treatment.
The most commonly reported TEAE was nausea (63.6%).

[5] = clinical trials; cited from earlier work
[6] = Long-term extension study of setmelanotide, hypothalamic obesity subpopulation; format: in vivo, human
Procedure: This example describes a long-term extension study of the use of setmelanotide in treating hypothalamic obesity, and further to investigate the safety and tolerability of chronic setmelanotide administration for up to 5 years from initiation of treatment.
Setmelanotide, 10 mg/mL in a sterile solution, QD. Dosing was continued at the dosage of the cessation of the previous setmelanotide trial, (e.g., 3.0 mg QD for most patients enrolled in the setmelanotide trial for treating subjects with hypothalamic obesity), unless a change is determined necessary by the Investigator, e.g., for safety, tolerability, TEAE, SAE, or other concern.
The objective of this study was to examine the long-term safety parameters of chronic, daily subcutaneous setmelanotide injections for a period of up to 5 years. In order to assess this primary endpoint, the occurrence of TEAEs and SAEs were tracked, in addition to other clinical data including any new emergence of injection site reactions, changes in resting heart rate or blood pressure, laboratory workup (e.g., fasting glucose, HbA1c, lipid profiles (total-, high-density lipoprotein [HDL]-, and low-density lipoprotein [LDL]-cholesterol, triglycerides), liver enzymes, changes in physical examination (e.g., weight, BMI, BMI Z-Score), and cardiac changes (e.g., as measured by an electrocardiogram (ECG). […]

## CC(=O)N[C@@H](CCCNC(=N)N)C(=O)N[C@H]1CSSC[C@@H](C(N)=O)NC(=O)[C@H](Cc2c[nH]c3ccccc23)NC(=O)[C@H](CCCNC(=N)N)NC(=O)[C@@H](Cc2ccccc2)NC(=O)[C@H](Cc2cnc[nH]2)NC(=O)[C@@H](C)NC1=O [setmelanotide, Ac-Arg-c(Cys-D-Ala-His-D-Phe-Arg-Trp-Cys)-NH2]
[1]; N 7
  Weekly average of daily most hunger score, Week 16 Actual, Median: 5.67
  Weekly average of daily most hunger score, Week 16 Change from Baseline, Median: −1.71
[1]; N 7 at Week 16
  Weekly average of daily most hunger score (Most Hungry Last 24 hrs), Week 16 Actual, Mean (SD): 4.55 (2.84)
[2]; 6-<18 years (N = 9)
  Weight (kg), Week 16 Actual, Median: 93.07 kg
  Weight (kg), Week 16 Change from Baseline, Mean (SD): -17.83 kg
  Weight (kg), Week 16 Change from Baseline, Median: -16.77 kg
  Weight, Week 16 Percent Change from Baseline, Mean (SD): −17.80%
  Weight, Week 16 Percent Change from Baseline, Median: −14.12%
  Weight (kg), Week 16 Actual, Mean (SD): 89.98 kg
[2]; 9 completers at 16 weeks
  Mean BMI reduction: −19.5%
[2]; FAS set, after 16 weeks
  Mean change in BMI Z score: −1.1 point
[2]; Total (N = 11)
  Weight (kg), Week 16 Actual, Median: 94.27 kg
  Weight (kg), Week 16 Change from Baseline, Mean (SD): -15.87 kg
  Weight (kg), Week 16 Change from Baseline, Median: -13.90 kg
  Weight, Week 16 Percent Change from Baseline, Mean (SD): −15.79%
  Weight, Week 16 Percent Change from Baseline, Median: −13.68%
  Weight (kg), Week 16 Actual, Mean (SD): 91.22 kg
[2]; after 16 weeks of setmelanotide, SD 7.9%
  Mean percent change in body weight: −17.8%
[2]; all patients less than 18 years old, 16 weeks
  Reduction in BMI Z score: statistically significant reduction in BMI Z score
[2]; completers (n=9), 16 weeks, p<0.0001
  Proportion of patients achieving at least a 10% reduction in BMI: 100%
[2]; full analysis set (n=11), 16 weeks, p<0.0001
  Proportion of patients achieving greater than or equal to 5% reduction in BMI (primary endpoint): 100%
[2]; pediatric and adult patients, 16 weeks of daily SC therapy
  Reduction in weight: statistically significant and clinically meaningful reduction in weight
[2]; ≥18 years (N = 2)
  Weight (kg), Week 16 Actual, Median: 96.78 kg
  Weight (kg), Week 16 Change from Baseline, Mean (SD): -7.02 kg
  Weight (kg), Week 16 Change from Baseline, Median: -7.02 kg
  Weight, Week 16 Percent Change from Baseline, Mean (SD): −6.76%
  Weight, Week 16 Percent Change from Baseline, Median: −6.76%
  Weight (kg), Week 16 Actual, Mean (SD): 96.78 kg
[3]
  Reduction in hunger: statistically significant and clinically meaningful reduction in hunger
  Weight loss: rapid and sustained significant and clinically meaningful weight loss
[4]; 16 weeks, up to 3.0 mg/day SC
  Safety and tolerability of setmelanotide treatment: consistent with established data
[4]; eleven patients
  Incidence of nausea (most commonly reported TEAE): 63.6%
  Skin hyperpigmentation, e.g., melanocytic naevus, patients reporting: two of the eleven patients
[4]; eleven patients, related or unrelated to administration
  Patients with at least one treatment emergent adverse event (TEAE): All eleven of the patients
[4]; one patient, able to complete the study
  SAE related to Clostridium dificile colitis: classified as severe, but not related to setmelanotide therapy
[5]
  Effect on blood pressure: has not been shown to adversely affect blood pressure
[6]; 5 patients from the Phase 2 study, additional 3-8 months
  BMI in long-term extension: all of the patients but one continued to further see reductions in BMI
[6]; relative to BMI at initiation of the Phase 2 study
  BMI of the fifth patient (increase in BMI in the extension period): did not return to his or her original BMI
